Measurements from patent US20100124782A1, “Composition For Repairing Defect In Skin Or Gingival Soft Tissue And Method Of Culturing Autologous Fibroblasts” (Applied Cell Biotechnologies, Inc., priority 2007, published 2010).

Test system: fibroblasts separated from skin tissue
Assay: Collagen concentration in fibroblast culture supernatant (human collagen ELISA quantitative kit)
Assay type: cell-based
Conditions: vitamin C (0.01-1 mM) added to the culture medium of skin fibroblasts; unit not given
Experimental: Culture of the fibroblasts separated from skin tissue was carried out according to a well-known method (R. I. Freshney, Culture of Animal Cells: A MANUAL OF BASIC TECHNIQUE (Wiley-Liss, Inc. 2000)). Specifically, the fibroblasts separated from skin tissue were being subcultured, subsequently followed by expansion culture, to be end up to a few T-225 flasks in the end. Vitamin C in the range of 0.01-1 mM was added to the culture medium three days before the end of culture (scheduled day of injection). Furthermore, the culture medium was replaced with a 2-5% self-serum addition culture medium with no vitamin C added. The cultured fibroblasts were exfoliated from a culture vessel with a dispersion liquid with no EDTA solution or enzyme, and the cells were separated from the dispersion liquid by centrifugation. Then, washing in a physiological salt solution were performed more than three times. The collagen concentration contained in the culture supernatant of the fibroblasts cultured in the culture medium with vitamin C added of Example 1 and the culture supernatant with no vitamin C added by the human collagen ELISA quantitative kit (AC Biotechnologies).

SMILES: O=C1O[C@H]([C@@H](O)CO)C(O)=C1O [vitamin C]
- collagen concentration contained in the culture supernatant: 11.3
